Data taken from patent publication US20120034613A1, “Apparatus and Method for Testing Relationships Between Gene Expression and Physical Appearance of Skin” (NSE Products, Inc., priority 2010, published 2012).

Assays:
facial skin [1] = experiment: Clinical investigator grading of facial attributes, 9-point ordinal scale, 12 week clinical study; format: in vivo, human; conditions: for Cheek Wrinkles clinical grading Mean: Baseline mean 2.41; for Under-Eye Area Wrinkles clinical grading Mean: Baseline mean 3.19; for Crows Feet Wrinkles clinical grading Mean: Baseline mean 3.29; for Face Tactile Roughness/Smoothness clinical grading Mean: Baseline mean 3.48; for Face Fine Lines (Overall) clinical grading Mean: Baseline mean 4.29; for Face Pore Size clinical grading Mean: Baseline mean 4.41; for Face Global Firmness Appearance clinical grading Mean: Baseline mean 5.03; for Face Mottled Pigmentation clinical grading Mean / Face Uneven Skin Tone clinical grading Mean: Baseline mean 5.05; for Face Jawline Contour clinical grading Mean: Baseline mean 5.16; for Face Overall Appearance clinical grading Mean: Baseline mean 5.47; for Face Radiance clinical grading Mean: Baseline mean 5.81
Description: At baseline (Visit 1), each prospective subject completed an Eligibility and Health Questionnaire, and read and signed a Confidentially Agreement, a Photography Release Form and an Informed Consent Agreement. Each subject was explained the type of study, the detailed procedures and materials to be tested, along with any known adverse reactions that may result from participation. Subjects arrived at the clinic having refrained from applying any moisturizer to the face at least 3 to 5 days prior to visit and having cleansed the face to remove all makeup at least 30 minutes prior to visit. Subjects were consequently not allowed to use any other topical cosmeceuticals, topical retinoid, or moisturizers during the 12 week duration of the study. Subjects used the study product on their face twice daily for 12 weeks. Ordinal grading on a 9-point scale (0=none, 1-3=mild, 4-6=moderate, 7-9=severe) of facial fine lines, mottled pigmentation, uneven skin tone, tactile roughness, global firmness appearance, jaw-line contour, radiance and overall appearance was performed by investigator at baseline, week 1, week 4, week 8 and week 12. Digital high-resolution photography was performed on the front, right and left sides of the face. Each image was taken while the subject's eyes were open. Each subject's baseline photograph was compared to each post-baseline photograph to ensure consistent placement and lighting. Color standards were imaged prior to each study visit. All clinical and corneometer measurements and evaluations were taken at baseline, week 1 (visit 2), week 4 (visit 3), week 8 (visit 4) and week 12 (visit 5). Ultrasound and cutometer measurements and evaluations were taken at baseline, week 4 (visit 3), week 8 (visit 4) and week 12 (visit 5). Completed patient's diaries were reviewed for compliance at each visit. Mean clinical grading and instrumentation scores at each visit were statistically compared to baseline scores using paired t-test. Changes from baseline were considered significant at the p≦0.05 level. Mean percent change from baseline and incidence of positive responders were calculated for all attributes. Comparisons, based on the average from baseline, were made between the test materials using analysis of variance (ANOVA).

facial skin [2] = experiment: Cutometer measurement of extensibility of the skin, 12 week clinical study; format: in vivo, human; conditions: for Cutometer Extensibility Mean: Baseline mean 1.15
Description: A single cutometer measurement was taken on the right side of the subject's face, in line with the corner of the eye and the edge of the nostril, to measure the extensibility of the skin. All clinical and corneometer measurements and evaluations were taken at baseline, week 1 (visit 2), week 4 (visit 3), week 8 (visit 4) and week 12 (visit 5). Ultrasound and cutometer measurements and evaluations were taken at baseline, week 4 (visit 3), week 8 (visit 4) and week 12 (visit 5). Completed patient's diaries were reviewed for compliance at each visit. Mean clinical grading and instrumentation scores at each visit were statistically compared to baseline scores using paired t-test. Changes from baseline were considered significant at the p≦0.05 level. Mean percent change from baseline and incidence of positive responders were calculated for all attributes. Comparisons, based on the average from baseline, were made between the test materials using analysis of variance (ANOVA).

OCc1ccccc1O[C@@H]1O[C@H](CO)[C@@H](O)[C@H](O)[C@H]1O [Salicin, 2-(Hydroxymethyl)phenyl β-D-glucospyranoside] was tested, and the “Cheek Wrinkles clinical grading Mean” value (facial skin [1]; Week 1) was 2.29, the “Under-Eye Area Wrinkles clinical grading Mean” value (facial skin [1]; Week 1) was 3.07 and the “Crows Feet Wrinkles clinical grading Mean” value (facial skin [1]; Week 1) was 3.21. For the same compound, the “Face Tactile Roughness/Smoothness clinical grading Mean” value (facial skin [1]; Week 1) was 2.41, the “Face Fine Lines (Overall) clinical grading Mean” value (facial skin [1]; Week 1) was 4.14 and the “Face Pore Size clinical grading Mean” value (facial skin [1]; Week 1) was 4.30. The “Face Global Firmness Appearance clinical grading Mean” value (facial skin [1]; Week 1) was 5.04, the “Face Mottled Pigmentation clinical grading Mean” value (facial skin [1]; Week 1) was 5.05 and the “Face Uneven Skin Tone clinical grading Mean” value (facial skin [1]; Week 1) was 5.05. For the same compound, the “Face Jawline Contour clinical grading Mean” value (facial skin [1]; Week 1) was 5.14, the “Face Overall Appearance clinical grading Mean” value (facial skin [1]; Week 1) was 5.21 and the “Face Radiance clinical grading Mean” value (facial skin [1]; Week 1) was 5.20. The “Cheek Wrinkles clinical grading % Change” value (facial skin [1]; Week 1 vs Baseline) was “(−1.5%)”, the “Crows Feet Wrinkles clinical grading % Change” value (facial skin [1]; Week 1 vs Baseline) was “(−0.5%)” and the “Face Fine Lines (Overall) clinical grading % Change” value (facial skin [1]; Week 1 vs Baseline) was “(−3.7%)”. For the same compound, the “Face Global Firmness Appearance clinical grading % Change” value (facial skin [1]; Week 1 vs Baseline) was “(0.3%)”, the “Face Jawline Contour clinical grading % Change” value (facial skin [1]; Week 1 vs Baseline) was “(0.0%)” and the “Face Mottled Pigmentation clinical grading % Change” value (facial skin [1]; Week 1 vs Baseline) was “(−0.7%)”. For the same compound, the “Face Overall Appearance clinical grading % Change” value (facial skin [1]; Week 1 vs Baseline) was “(−4.2%)”, the “Face Pore Size clinical grading % Change” value (facial skin [1]; Week 1 vs Baseline) was “(−2.4%)” and the “Face Radiance clinical grading % Change” value (facial skin [1]; Week 1 vs Baseline) was “(−11.0%)”. The “Face Tactile Roughness/Smoothness clinical grading % Change” value (facial skin [1]; Week 1 vs Baseline) was “(−30.7%)”, the “Face Uneven Skin Tone clinical grading % Change” value (facial skin [1]; Week 1 vs Baseline) was “(−0.7%)” and the “Under-Eye Area Wrinkles clinical grading % Change” value (facial skin [1]; Week 1 vs Baseline) was “(−1.7%)”. The “Cheek Wrinkles clinical grading Mean” value (facial skin [1]; Week 4) was 2.26, the “Under-Eye Area Wrinkles clinical grading Mean” value (facial skin [1]; Week 4) was 2.79 and the “Crows Feet Wrinkles clinical grading Mean” value (facial skin [1]; Week 4) was 3.00. The “Face Tactile Roughness/Smoothness clinical grading Mean” value (facial skin [1]; Week 4) was 2.02, the “Face Fine Lines (Overall) clinical grading Mean” value (facial skin [1]; Week 4) was 3.76 and the “Face Pore Size clinical grading Mean” value (facial skin [1]; Week 4) was 4.05. For the same compound, the “Face Global Firmness Appearance clinical grading Mean” value (facial skin [1]; Week 4) was 4.86, the “Face Mottled Pigmentation clinical grading Mean” value (facial skin [1]; Week 4) was 4.74 and the “Face Uneven Skin Tone clinical grading Mean” value (facial skin [1]; Week 4) was 4.74. The “Face Jawline Contour clinical grading Mean” value (facial skin [1]; Week 4) was 5.10, the “Face Overall Appearance clinical grading Mean” value (facial skin [1]; Week 4) was 4.91 and the “Face Radiance clinical grading Mean” value (facial skin [1]; Week 4) was 4.90. For the same compound, the “Cheek Wrinkles clinical grading % Change” value (facial skin [1]; Week 4 vs Baseline) was “(−6.4%)”, the “Crows Feet Wrinkles clinical grading % Change” value (facial skin [1]; Week 4 vs Baseline) was “(−8.9%)” and the “Face Fine Lines (Overall) clinical grading % Change” value (facial skin [1]; Week 4 vs Baseline) was “(−12.4%)”. For the same compound, the “Face Global Firmness Appearance clinical grading % Change” value (facial skin [1]; Week 4 vs Baseline) was “(−3.4%)”, the “Face Jawline Contour clinical grading % Change” value (facial skin [1]; Week 4 vs Baseline) was “(−1.0%)” and the “Face Mottled Pigmentation clinical grading % Change” value (facial skin [1]; Week 4 vs Baseline) was “(−6.1%)”. For the same compound, the “Face Overall Appearance clinical grading % Change” value (facial skin [1]; Week 4 vs Baseline) was “(−10.0%)”, the “Face Pore Size clinical grading % Change” value (facial skin [1]; Week 4 vs Baseline) was “(−8.2%)” and the “Face Radiance clinical grading % Change” value (facial skin [1]; Week 4 vs Baseline) was “(−15.7%)”. The “Face Tactile Roughness/Smoothness clinical grading % Change” value (facial skin [1]; Week 4 vs Baseline) was “(−42.0%)”, the “Face Uneven Skin Tone clinical grading % Change” value (facial skin [1]; Week 4 vs Baseline) was “(−6.1%)” and the “Under-Eye Area Wrinkles clinical grading % Change” value (facial skin [1]; Week 4 vs Baseline) was “(−12.4%)”. The “Cheek Wrinkles clinical grading Mean” value (facial skin [1]; Week 8) was 2.12, the “Under-Eye Area Wrinkles clinical grading Mean” value (facial skin [1]; Week 8) was 2.55 and the “Crows Feet Wrinkles clinical grading Mean” value (facial skin [1]; Week 8) was 2.71. The “Face Tactile Roughness/Smoothness clinical grading Mean” value (facial skin [1]; Week 8) was 1.43, the “Face Fine Lines (Overall) clinical grading Mean” value (facial skin [1]; Week 8) was 3.47 and the “Face Pore Size clinical grading Mean” value (facial skin [1]; Week 8) was 3.86. The “Face Global Firmness Appearance clinical grading Mean” value (facial skin [1]; Week 8) was 4.64, the “Face Mottled Pigmentation clinical grading Mean” value (facial skin [1]; Week 8) was 4.57 and the “Face Uneven Skin Tone clinical grading Mean” value (facial skin [1]; Week 8) was 4.57. The “Face Jawline Contour clinical grading Mean” value (facial skin [1]; Week 8) was 4.95, the “Face Overall Appearance clinical grading Mean” value (facial skin [1]; Week 8) was 4.67 and the “Face Radiance clinical grading Mean” value (facial skin [1]; Week 8) was 4.72. For the same compound, the “Cheek Wrinkles clinical grading % Change” value (facial skin [1]; Week 8 vs Baseline) was “(−12.1%)”, the “Crows Feet Wrinkles clinical grading % Change” value (facial skin [1]; Week 8 vs Baseline) was “(−17.8%)” and the “Face Fine Lines (Overall) clinical grading % Change” value (facial skin [1]; Week 8 vs Baseline) was “(−19.2%)”. For the same compound, the “Face Global Firmness Appearance clinical grading % Change” value (facial skin [1]; Week 8 vs Baseline) was “(−7.8%)”, the “Face Jawline Contour clinical grading % Change” value (facial skin [1]; Week 8 vs Baseline) was “(−4.0%)” and the “Face Mottled Pigmentation clinical grading % Change” value (facial skin [1]; Week 8 vs Baseline) was “(−9.5%)”. The “Face Overall Appearance clinical grading % Change” value (facial skin [1]; Week 8 vs Baseline) was “(−14.5%)”, the “Face Pore Size clinical grading % Change” value (facial skin [1]; Week 8 vs Baseline) was “(−12.5%)” and the “Face Radiance clinical grading % Change” value (facial skin [1]; Week 8 vs Baseline) was “(−18.6%)”. For the same compound, the “Face Tactile Roughness/Smoothness clinical grading % Change” value (facial skin [1]; Week 8 vs Baseline) was “(−58.9%)”, the “Face Uneven Skin Tone clinical grading % Change” value (facial skin [1]; Week 8 vs Baseline) was “(−9.5%)” and the “Under-Eye Area Wrinkles clinical grading % Change” value (facial skin [1]; Week 8 vs Baseline) was “(−20.0%)”. The “Cheek Wrinkles clinical grading Mean” value (facial skin [1]; Week 12) was 2.02, the “Under-Eye Area Wrinkles clinical grading Mean” value (facial skin [1]; Week 12) was 2.24 and the “Crows Feet Wrinkles clinical grading Mean” value (facial skin [1]; Week 12) was 2.48. The “Face Tactile Roughness/Smoothness clinical grading Mean” value (facial skin [1]; Week 12) was 0.98, the “Face Fine Lines (Overall) clinical grading Mean” value (facial skin [1]; Week 12) was 3.10 and the “Face Pore Size clinical grading Mean” value (facial skin [1]; Week 12) was 3.71. The “Face Global Firmness Appearance clinical grading Mean” value (facial skin [1]; Week 12) was 4.48, the “Face Mottled Pigmentation clinical grading Mean” value (facial skin [1]; Week 12) was 4.33 and the “Face Uneven Skin Tone clinical grading Mean” value (facial skin [1]; Week 12) was 4.34. The “Face Jawline Contour clinical grading Mean” value (facial skin [1]; Week 12) was 4.74, the “Face Overall Appearance clinical grading Mean” value (facial skin [1]; Week 12) was 4.50 and the “Face Radiance clinical grading Mean” value (facial skin [1]; Week 12) was 4.59. The “Cheek Wrinkles clinical grading % Change” value (facial skin [1]; Week 12 vs Baseline) was “(−16.4%)”, the “Crows Feet Wrinkles clinical grading % Change” value (facial skin [1]; Week 12 vs Baseline) was “(−24.6%)” and the “Face Fine Lines (Overall) clinical grading % Change” value (facial skin [1]; Week 12 vs Baseline) was “(−27.7%)”. The “Face Global Firmness Appearance clinical grading % Change” value (facial skin [1]; Week 12 vs Baseline) was “(−10.9%)”, the “Face Jawline Contour clinical grading % Change” value (facial skin [1]; Week 12 vs Baseline) was “(−8.0%)” and the “Face Mottled Pigmentation clinical grading % Change” value (facial skin [1]; Week 12 vs Baseline) was “(−14.3%)”. The “Face Overall Appearance clinical grading % Change” value (facial skin [1]; Week 12 vs Baseline) was “(−17.6%)”, the “Face Pore Size clinical grading % Change” value (facial skin [1]; Week 12 vs Baseline) was “(−16.0%)” and the “Face Radiance clinical grading % Change” value (facial skin [1]; Week 12 vs Baseline) was “(−21.0%)”. The “Face Tactile Roughness/Smoothness clinical grading % Change” value (facial skin [1]; Week 12 vs Baseline) was “(−71.7%)”, the “Face Uneven Skin Tone clinical grading % Change” value (facial skin [1]; Week 12 vs Baseline) was “(−13.9%)” and the “Under-Eye Area Wrinkles clinical grading % Change” value (facial skin [1]; Week 12 vs Baseline) was “(−29.7%)”. The “Cutometer Extensibility Mean” value (facial skin [2]; Week 4) was 1.17, the “Cutometer Extensibility % Change” value (facial skin [2]; Week 4 vs Baseline) was “(1.8%)” and the “Cutometer Extensibility Mean” value (facial skin [2]; Week 8) was 1.17. For the same compound, the “Cutometer Extensibility % Change” value (facial skin [2]; Week 8 vs Baseline) was “(1.3%)”, the “Cutometer Extensibility Mean” value (facial skin [2]; Week 12) was 1.26 and the “Cutometer Extensibility % Change” value (facial skin [2]; Week 12 vs Baseline) was “(9.6%)”.
